Where “and” joins values, the source holds several entries; their conditions need not be identical. Identical values can stand only once.

For seven molecules, IC50 and viability, T/C results are on record in PubChem BioAssay AID1918940 (Molecular Pharmacology Branch, DTP, NCI, 2023).

The test concerns NCI-H211 complex spheroid viability. Put plainly: Anticancer human tumor NCI-H211 cell line growth inhibition [LSD1].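 On all read-outs here: luminescent viability read after seven days of drug exposure.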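 On viability, T/C: 100% = DMSO vehicle control viability.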 The note with it: for viability, T/C: stronger effect = lower value. The method in brief: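 Multicellular complex spheroids of tumor cells with human endothelial cells (HUVEC) and mesenchymal stem cells; the LSD1 inhibitor iadademstat was combined with standard-of-care or investigational agents. Top concentration at or near clinical Cmax, half-log dilutions; final DMSO ≤0.25%.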

Where [1] appears, read: curve of first compound, second compound 0.1 µM.
Where [2] appears, read: curve of first compound, second compound 0.316 µM.
[3] abbreviates: curve of first compound, second compound 1 µM.
The mark [4] stands for this setting: curve of first compound, second compound 3.16 µM.
Setting [5] is: curve of first compound, second compound 10 µM.
The mark [6] stands for this setting: second compound 0.1 µM, first compound 0.0316 µM.
[7] abbreviates: second compound 0.1 µM, first compound 0.1 µM.
[8] abbreviates: second compound 0.316 µM, first compound 0.0316 µM.
[9] abbreviates: second compound 0.316 µM, first compound 0.1 µM.
Where [10] appears, read: second compound 1 µM, first compound 0.0316 µM.
Where [11] appears, read: second compound 1 µM, first compound 0.1 µM.
[12] abbreviates: second compound 3.16 µM, first compound 0.0316 µM.
[13] abbreviates: second compound 3.16 µM, first compound 0.1 µM.
The mark [14] stands for this setting: second compound 10 µM, first compound 0.0316 µM.
[15] abbreviates: second compound 10 µM, first compound 0.1 µM.

Consider `COc1ccc([C@@H](O)c2cc(-c3ncnc4cc(N5CCOCC5)ccc34)c(F)cc2Cl)nn1` + NC1CCC(NC2CC2c2ccccc2)CC1, for which the IC50 (as a rule, the concentration that gives 50% inhibition) reads like this: under setting [1], 3700 nM; under setting [2], 3370 nM; under setting [3], 3480 nM; under setting [4], 3700 nM; under setting [5], less than 31.6 nM. The viability, T/C (as a rule, the ratio of treated to control) is 72.7% under setting [6]; 63% under setting [7]; 69.5% (second compound 0.1 µM, first compound 0.316 µM); 74.2% (second compound 0.1 µM, first compound 1 µM); 55.8% (second compound 0.1 µM, first compound 3.16 µM); 13.7% (second compound 0.1 µM, first compound 10 µM). Further, the viability, T/C runs as follows: under setting [8], 66.9%; under setting [9], 69.7%; (second compound 0.316 µM, first compound 0.316 µM) 73.2%; (second compound 0.316 µM, first compound 1 µM) 71.2%; (second compound 0.316 µM, first compound 3.16 µM) 52.1%; (second compound 0.316 µM, first compound 10 µM) 12.6%. The viability, T/C runs as follows: under setting [10], 69.2%; under setting [11], 63.6%; (second compound 1 µM, first compound 0.316 µM) 65.3%; (second compound 1 µM, first compound 1 µM) 81.7%; (second compound 1 µM, first compound 3.16 µM) 53.4%; (second compound 1 µM, first compound 10 µM) 11.3%. Besides, the viability, T/C is 73.6% under setting [12]; 63.3% under setting [13]; 64% (second compound 3.16 µM, first compound 0.316 µM); 81.5% (second compound 3.16 µM, first compound 1 µM); 56.1% (second compound 3.16 µM, first compound 3.16 µM); 11.1% (second compound 3.16 µM, first compound 10 µM). In addition, the viability, T/C is 36.9% under setting [14]; 36.7% under setting [15]; 36.8% (second compound 10 µM, first compound 0.316 µM); 54.3% (second compound 10 µM, first compound 1 µM); 49% (second compound 10 µM, first compound 3.16 µM); 8.03% (second compound 10 µM, first compound 10 µM).
Take `CC[C@@]1(O)C(=O)OCc2c1cc1n(c2=O)Cc2cc3c(CN(C)C)c(O)ccc3nc2-1` + NC1CC1c1ccc(-c2cccc(O)c2)cc1: the IC50 runs as follows: under setting [1], 0.472 nM; under setting [2], 0.4 nM; under setting [3], 0.333 nM; under setting [4], less than 0.316 nM; under setting [5], less than 0.316 nM. The viability, T/C runs as follows: (second compound 0.1 µM, first compound 0.000316 µM) 69.9%; (second compound 0.1 µM, first compound 0.001 µM) 12.8%; (second compound 0.1 µM, first compound 0.00316 µM) 4.7%; (second compound 0.1 µM, first compound 0.01 µM) 4.95%; under setting [6], 3.81%; under setting [7], 2.69%. Besides, the viability, T/C was 60% (second compound 0.316 µM, first compound 0.000316 µM); 12% (second compound 0.316 µM, first compound 0.001 µM); 6.18% (second compound 0.316 µM, first compound 0.00316 µM); 4.37% (second compound 0.316 µM, first compound 0.01 µM); 4.53% under setting [8]; 2.25% under setting [9]. Besides, the viability, T/C is, setting by setting: (second compound 1 µM, first compound 0.000316 µM) 51.9%; (second compound 1 µM, first compound 0.001 µM) 11.9%; (second compound 1 µM, first compound 0.00316 µM) 5.4%; (second compound 1 µM, first compound 0.01 µM) 3.69%; under setting [10], 4.13%; under setting [11], 3.19%. For the same molecule, the viability, T/C was 38.7% (second compound 3.16 µM, first compound 0.000316 µM); 11.8% (second compound 3.16 µM, first compound 0.001 µM); 5.33% (second compound 3.16 µM, first compound 0.00316 µM); 5.16% (second compound 3.16 µM, first compound 0.01 µM); 5.02% under setting [12]; 2.67% under setting [13]. Moreover, the viability, T/C was 44.5% (second compound 10 µM, first compound 0.000316 µM); 15.3% (second compound 10 µM, first compound 0.001 µM); 4.98% (second compound 10 µM, first compound 0.00316 µM); 5.88% (second compound 10 µM, first compound 0.01 µM); 5.04% under setting [14]; 2.36% under setting [15].
With `COc1cc(C2c3cc4c(cc3C(OC3OC5COC(C)OC5C(O)C3O)C3COC(=O)C23)OCO4)cc(OC)c1O` (stereo not given), the viability, T/C is 71.3% and 48.3% (compound 0.00949 µM); 15.2% and 13.1% (compound 0.03 µM); 2.55% and 6.21% (compound 0.0949 µM); 2.41% and 5.04% (compound 0.3 µM); 2.11% and 6.22% (compound 0.949 µM); 2.35% and 5.42% (compound 3 µM). Also, for the setting “curve of compound”, the IC50 is 14.7 nM and < 9.49 nM.
Take `Cn1ncnc1C1c2n[nH]c(=O)c3cc(F)cc(c23)NC1c1ccc(F)cc1` (stereo not given): the viability, T/C (compound 0.000316 µM) was 102% and 103%; the viability, T/C (compound 0.001 µM) is 94.9% and 82.6%; the viability, T/C (compound 0.00316 µM) was 44.8% and 29%; the viability, T/C (compound 0.01 µM) is 5.27% and 6.62%; the viability, T/C (compound 0.0316 µM) is 8.07% and 5.97%; the viability, T/C (compound 0.1 µM) was 3.43% and 6.43%. Further, the IC50 (curve of compound) is 2.79 nM and 2.01 nM.
With `CC(C)CC(NC(=O)CNC(=O)c1cc(Cl)ccc1Cl)B1OC(=O)CC(CC(=O)O)(C(=O)O)O1` (stereo not given), the viability, T/C was 125% and 105% (compound 0.000316 µM); 114% and 102% (compound 0.001 µM); 112% and 115% (compound 0.00316 µM); 65.5% and 41.5% (compound 0.01 µM); 16% and 14% (compound 0.0316 µM); 3.55% and 4.35% (compound 0.1 µM). Besides, the IC50 (curve of compound) is 14.4 nM and 8.63 nM.
In the case of `O=C(C=Cn1cnc(-c2cc(C(F)(F)F)cc(C(F)(F)F)c2)n1)NNc1cnccn1`, the viability, T/C is, setting by setting: (compound 0.00316 µM) 45.9% and 53.7%; (compound 0.01 µM) 24% and 37.6%; (compound 0.0316 µM) 11.7% and 14.6%; (compound 0.1 µM) 4.91% and 5.02%; (compound 0.316 µM) 1.61% and 2.32%; (compound 1 µM) 1.37% and 2.1%. In addition, under “curve of compound”, the IC50 was < 3.16 nM and 4.13 nM.
In the case of `Nc1ncn(C2CC(O)C(CO)O2)c(=O)n1` (stereo not given), the viability, T/C runs as follows: (compound 0.00316 µM) 35.4% and 37.7%; (compound 0.01 µM) 21.4% and 19%; (compound 0.0316 µM) 9.11% and 7%; (compound 0.1 µM) 2.47% and 4.09%; (compound 0.316 µM) 1.77% and 5.19%; (compound 1 µM) 1.67% and 4.71%. For the setting “curve of compound”, the IC50 is less than 3.16 nM.
